Earlier results, collected in US6653081B2, “Methods for monitoring antiretroviral therapy and guiding therapeutic decision in the treatment of HIV/AIDS” (ViroLogic, Inc., priority 2000, dated 2003).

Test system: codon 181 mutant HIV-1
Settings: cited from earlier work

Structure (SMILES)	susceptibility / activity in the presence of the Y181C mutation
CCc1cc(CCc2nc3ccccc3o2)c(=O)[nH]c1C [L-696,229]	reduced susceptibility
CCc1cc(NCc2nc3c(Cl)ccc(Cl)c3o2)c(O)nc1C [L-697,661]	reduced susceptibility
